Laboratory results from patent US20190262355A1, “COMBINATION OF A BRD4 INHIBITOR AND AN ANTIFOLATE FOR THE THERAPY OF CANCER” (CeMM-Forschungszentrum für Molekulare Medizin GmbH, priority 2016, published 2019).

Tests used:
[1] = tested on: A549 xenograft; test: A549 xenograft mouse model; type: in vivo; conditions: NOD SCID gamma mice; 30 mg/kg (S)-JQ1 i.p. five times per week and/or 25 mg/kg MTX i.p. twice weekly from day 19 to day 43 (FIG. 21B-D)
Description: Mouse xenograft studies were performed as described previously^35. 2×10^6 A549 cells, diluted 1:1 in matrigel, were transplanted subcutaneously into NOD SCID gamma mice. Treatment (30 mg/kg (S)-JQ1 by intraperitoneal injection five times per week, and 25 mg/kg MTX per intraperitoneal injection twice weekly) was started when tumors were established, 19 days post transplantation. Tumor volumes were evaluated twice a week by measuring two perpendicular diameters with calipers. Tumor volume was calculated using the following equation: (width*width*length)/2. Treatment was performed according to an animal licence protocol approved by the Bundesministerium für Wissenschaft and Forschung (BMWF-66.009/0280-II/3b/2012). At day 43 mice were sacrificed and tumors excised and weighted.

[2] = tested on: A549 cells; test: Cell viability of A549 cells after MTHFD1 knock-down; type: cell-based; conditions: 72 hours (S)-JQ1 (FIG. 21A)
Description: KBM7 (human chronic myelogenous leukemia cell lines), MV4-11 (biphenotypic B myelomonocytic leukemia), MEG-01 (human chronic myelogenous leukemia), K-562 (human chronic myelogenous leukemia) and HAP1 (KBM7-derived) cell lines were cultured in Iscove's Modified Dulbecco's Medium (IMDM, Gibco), supplemented with 10% Fetal Bovine Serum (FBS; Gibco). HEK293T (human embryonic kidney) and HELA (cervix adenocarcinoma) cell lines were cultured in Dulbecco's Modified Eagles Medium (DMEM, Gibco) supplemented with 10% FBS. MOLM-13 (human acute monocytic leukemia), NOMO-1 (human acute monocytic leukemia) and A549 (lung carcinoma) cell lines were cultured in RPMI-1640 (Roswell Park Memorial Institute, Gibco) supplemented with 10% FBS. All the mentioned cell lines were incubated in 5% CO2 atmosphere at 37° C.

[3] = molecular target: T1, BRD4-MTHFD1 interaction (Homo sapiens, UniProt O60885+P11586); test: MTHFD1 pull-down on HAP1 whole cell lysates (BRD4-MTHFD1 interaction); type: binding; conditions: HAP1 whole cell lysates treated with 50 μM (FIG. 9I)
T1 construct: MTHFD1 pull-down performed on HAP1 whole cell lysates treated with 50 μM (S)-JQ1, MTX; endogenous in cells; host or cells: HAP1
T1 sequence (P11586 whole entry, other chains not shown): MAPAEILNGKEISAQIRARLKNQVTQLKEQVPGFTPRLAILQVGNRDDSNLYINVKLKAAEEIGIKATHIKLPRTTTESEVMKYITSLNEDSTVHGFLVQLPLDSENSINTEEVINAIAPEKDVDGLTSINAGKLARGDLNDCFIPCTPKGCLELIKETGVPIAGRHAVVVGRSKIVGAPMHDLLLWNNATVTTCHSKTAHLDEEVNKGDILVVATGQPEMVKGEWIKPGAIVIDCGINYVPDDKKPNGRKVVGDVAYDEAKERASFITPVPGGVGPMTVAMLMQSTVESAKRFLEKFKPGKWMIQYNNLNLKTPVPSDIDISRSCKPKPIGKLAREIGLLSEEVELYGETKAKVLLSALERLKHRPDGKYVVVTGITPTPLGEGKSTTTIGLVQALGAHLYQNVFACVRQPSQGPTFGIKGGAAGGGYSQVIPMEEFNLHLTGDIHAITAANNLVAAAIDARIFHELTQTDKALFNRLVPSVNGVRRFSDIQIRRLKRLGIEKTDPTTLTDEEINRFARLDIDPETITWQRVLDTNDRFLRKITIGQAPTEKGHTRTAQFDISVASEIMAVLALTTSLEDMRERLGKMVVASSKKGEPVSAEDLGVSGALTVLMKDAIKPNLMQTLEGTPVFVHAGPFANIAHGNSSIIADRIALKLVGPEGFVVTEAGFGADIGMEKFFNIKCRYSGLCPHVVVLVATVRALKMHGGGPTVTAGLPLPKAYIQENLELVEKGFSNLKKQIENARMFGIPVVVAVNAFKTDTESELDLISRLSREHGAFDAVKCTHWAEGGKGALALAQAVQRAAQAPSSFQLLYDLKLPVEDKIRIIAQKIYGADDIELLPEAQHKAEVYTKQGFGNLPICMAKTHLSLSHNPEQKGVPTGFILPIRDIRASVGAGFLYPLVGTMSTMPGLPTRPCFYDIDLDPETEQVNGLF
Description: For immunoprecipitation, 1 mg of protein extract was incubated overnight at 4° C. with 10 μl of Dynabeads (either A or G, Life technology) preincubated for 2 hours at 4° C. with 1 μg of BRD4 (ab128874, Abcam), MTHFD1 (A8, Santa Cruz) or GFP (G10362, Life Technology) antibodies.

[4] = tested on: BRD4; test: REDS reporter cell line, RFP expression (Redness) on BRD4 inhibition; type: cell-based, human
Text: Live cell imaging pictures were taken from cells seeded on clear flat bottom 96-well or 384-well plates (Corning), with the Operetta High Content Screening System (PerkinElmer), 20× objective and non-confocal mode. RFP quantification was done using the basic PerkinElmer software for nuclei detection and analysis, adapted for the nucleus diameter range of the specific cell line used (KBM7, 13 μm). Only RFP positive nuclei were detected and counted.
(§1) The prerequisite for effective GT genetic screens is a haploid system where monoallelic disruptive GT integration results in gene knock-out (KO). Therefore, KBM7 cells, a chronic myeloid leukemia cell line with near haploid karyotype, were chosen for the generation of the BRD4 reporter cell lines as previously described^15. […] Propidium iodide (PI) incorporation and FACS analysis were used to assay the cell cycle profile of several REDS clones in order to select a haploid clone suitable for GT-based genetic screen.
The suitability of the REDS1 clone for a GT-based genetic screen was then further validated.

[5] = tested on: panel of six cell lines (four not sensitive to BRD4 inhibition, plus KBM7 and HAP1); test: Cell viability of cancer cell lines, single agents and combination; type: cell-based, human; conditions: NOMO-1 the most sensitive to MTX (FIG. 13A, 13B)
Description: HEK293T (human embryonic kidney) and HELA (cervix adenocarcinoma) cell lines were cultured in Dulbecco's Modified Eagles Medium (DMEM, Gibco) supplemented with 10% FBS. […] All the mentioned cell lines were incubated in 5% CO2 atmosphere at 37° C.

[6] = tested on: WT-KBM7 cells; test: Cell cycle profile by PI staining and FACS (diploidization); type: cell-based, human; conditions: treated overnight during one week, PI incorporation and FACS (FIG. 6D)
Description: For cell cycle analysis, 1 million cells were fixed with 70% ethanol for 24 hours, washed with PBS/1% BSA/0.1% Tween and incubated with RNase for 30 minutes. Nuclei were stained with 5 μg/ml PI (propidium iodide, Sigma) for 10 minutes prior to FACS analysis (BD FACSCalibur Flow Cytometer).
as §1, with “screen. […] REDS1 was the only clonal cell line with haploid karyotype (see FIG. 6B), also confirmed by metaphase spreads (see FIG. 6C).” for “screen.”

[7] = tested on: MTHFD1 nuclear localization; test: Nuclear vs cytosol fractionation Western blot in HAP1 cells; type: cell-based, human; conditions: MTX 1 μM, 24 hours (FIG. 2D)
Description: For Western Blot, proteins were separated on polyacrylamide gels with SDS running buffer (50 mM Tris, 380 mM Glycine, 7 mM SDS) and transferred to nitrocellulose blotting membranes. All membranes were blocked with blocking buffer (5% (m/v) milk powder (BioRad) in TBST (Tris-Buffered Saline with Tween: 50 mM Tris (tris (hydroxymethyl)aminomethane), 150 mM NaCl, 0.05% (v/v) Tween 20, adjusted to pH 7.6). Proteins were probed with antibodies against BRD4 (ab128874, 1:1000, Abcam), Actin (ab16039, 1:1000, Abcam), MTHFD1 (ab70203, Abcam; H120, Santa Cruz; A8, Santa Cruz; all used at 1:1000), GFP (G10362, 1:1000, Life Technology), RCC1 (C-20, 1:1000, Santa Cruz), β-Tubulin (T-4026, 1:1000, Sigma), SHMT1 (ab186130, 1:1000, Abcam) and H2B (ab156197, 1:1000, Abcam) and detected by HRP (horseradish peroxidase) conjugated donkey anti-rabbit IgG antibody (ab16284, 1:5000, Abcam) or donkey anti-mouse IgG antibody (Pierce) and visualized with the Pierce ECL Western Blotting substrate (Amersham), according to the provided protocol.

[8] = tested on: nuclear folate pool; test: Folate metabolites in nuclear and cytosolic fractions of HAP1 cells (LC-MS/MS); type: cell-based, human; conditions: 6 hours, MTX and (S)-JQ1 1 μM, dBET6 0.5 μM (FIG. 19B)
Description: In order to quantify folates in the nuclear and cytosolic fractions, 20 millions of HAP1 cells per condition were washed twice with cold PBS, and collected into 50 ml falcon tube by centrifugation for 5 minutes at 280 g and 4° C. Cell lysis was performed on ice in the dark by incubating cell pellets with 1:5 hypotonic lysis buffer for 10 minutes. Nuclei were collected by centrifugation for 5 minutes at 420 g and 4° C. Supernatants (cytosolic fractions) were also collected. Both fractions were immediately snap frozen. For nucleus samples, 10 μL of ISTD mixture was added to nucleus pellet in 1.5 mL Eppendorf tube followed by addition of 145 μL of ice-cold extraction solvent (10 mg/mL ascorbic acid solution in 80% methanol, 20% water, v/v). The samples were vortexed for 10 seconds, afterwards incubated on ice for 3 min and vortexed again for 10 seconds. After centrifugation (14000 rpm, 10 min, 4° C.), the supernatant was collected into HPLC vials. […] An Acquity UHPLC system (Waters) coupled with Xevo TQ-MS (Waters) triple quadrupole mass spectrometer was used for quantitative analysis of metabolites. […] Quantification of all metabolites was performed using MassLynx V4.1 software from Waters. The seven-point linear calibration curves with internal standardization and 1/× weighing was constructed for the quantification.

[9] = molecular target: T2, chromatin-bound BRD4 (Homo sapiens, UniProt O60885); test: Western blot of chromatin associated proteins: BRD4; type: cell-based; conditions: HAP1 cells, MTX 1 μM, 2 or 24 hours (FIG. 2C)
T2 construct: Western Blot assay performed on chromatin associated protein samples extracted from HAP1 cells treated with the indicated compounds; endogenous in cells; host or cells: HAP1
Description: Cell fractionation and chromatin enrichment was carried out as previously described^29 with some adaptations. Briefly, for 100 million cells, the chromatin enriched pellet was taken up in 250 μl benzonase digestion buffer (15 mM HEPES, 1 mM EDTA, 1 mM EGTA, 0.1% NP40, protease inhibitor cocktail (cOmplete, Roche)) after washing, and sonicated for 120 seconds on the Covaris S220 focused-ultrasonicator with the following settings: Peak Power 140; Duty-Factor 10.0; Cycles/Burst 200. After addition of 0.25 U benzonase and 2.5 μg RNase, the chromatin was incubated for 40 minutes at 4° C. on a rotary shaker. 2× SDS lysis buffer (100 mM HEPES, 4% SDS, 2 mM PMSF and protease inhibitor cocktail (cOmplete, Roche)) was added to the samples in a 1:1 ratio and incubated for 10 minutes at room temperature followed by 5 minutes denaturation at 99° C. After centrifugation at 16,000 g for 10 minutes at room temperature, the supernatant was transferred to a new tube.

Row | Compound | tumor growth [1] | sensitivity to (S)-JQ1 after shRNA for MTHFD1 [2] | effect on BRD4-MTHFD1 interaction in MTHFD1 pull-down [3] | RFP expression detected by live cell imaging ([4]; REDS1 cells, 1 μM, 24 hours (FIG. 7B)) | expression of the reporter gene RFP in REDS detected by FACS ([4]; REDS clones, 0.5 μM (S)-JQ1 (FIG. 6A)) | sensitivity of cell lines to single treatment (dose response curves) [5] | diploidization of WT-KBM7 (cell cycle profile) [6] | MTHFD1 (or SHMT1) nuclear localization [7] | Redness after MTX treatment ([4]; REDS reporter cells, three days of MTX (FIG. 13C)) | changes in the nuclear folate pool [8] | BRD4 levels on chromatin after MTX [9]
1 | Cc1sc2c(c1C)C(c1ccc(Cl)cc1)=N[C@@H](CC(=O)OC(C)(C)C)c1nnc(C)n1-2 [(S)-JQ1] | not impaired | increased sensitivity | unaffected | robustly expressed RFP | rapid and consistent expression of the reporter gene red fluorescent protein (RFP) | low sensitivity | induced WT-KBM7 diploidization | – | – | – | –
2 | CN(Cc1cnc2nc(N)nc(N)c2n1)c1ccc(C(=O)N[C@@H](CCC(=O)O)C(=O)O)cc1 [MTX, methotrexate] | not impaired | – | unaffected | – | – | moderate to low sensitivity | – | not impairing MTHFD1 (or SHMT1) nuclear localization | only weakly increased | highly correlated characteristic changes specifically in the nuclear folate pool | did not affect BRD4 levels
